Legend:
Test in all cases: Test C preemergence
Format in all cases: in vivo
Nightshade = test system: Nightshade
Sunflower [1] = test system: Sunflower
[2] = test system: Surinam grass (Brachiaria decumbens); settings: for Plant response rating (0 to 100), Surinam grass: visual evaluation after 12 to 14 days
Outline: (§1)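 Each compound was dissolved in a non-phytotoxic solvent system containing a surfactant and sprayed either on freshly planted seeds (preemergence) or on young plants, 2 to 18 cm high (postemergence). Ratings after 12 to 14 greenhouse days ran from 0, no effect, to 100, complete control.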

[3] = test system: bermudagrass (Cynodon dactylon); settings: for Plant response rating (0 to 100 where 0 is no effect and 100 is complete control), Bermudagrass: visual evaluation after 12 to 14 days
Outline: as §1

[4] = test system: cocklebur (Xanthium strumarium); settings: for Plant response rating (0 to 100), Cocklebur: visual evaluation after 12 to 14 days
Outline: as §1

[5] = test system: common ragweed (Ambrosia elatior); settings: for Plant response rating (0 to 100), Ragweed, Common: visual evaluation after 12 to 14 days
Outline: as §1

corn (Zea mays) = settings: for Plant response rating (0 to 100), Corn: visual evaluation after 12 to 14 days
Outline: as §1

[6] = test system: crabgrass (Digitaria sanguinalis); settings: for Plant response rating (0 to 100), Crabgrass: visual evaluation after 12 to 14 days
Outline: as §1

[7] = test system: giant foxtail (Setaria faberii); settings: for Plant response rating (0 to 100), Foxtail, Giant: visual evaluation after 12 to 14 days
Outline: as §1

[8] = test system: goosegrass (Eleusine indica); settings: for Plant response rating (0 to 100), Goosegrass: visual evaluation after 12 to 14 days
Outline: as §1

[9] = test system: johnsongrass (Sorghum halepense); settings: for Plant response rating (0 to 100), Johnsongrass: visual evaluation after 12 to 14 days
Outline: as §1

kochia (Kochia scoparia) = settings: for Plant response rating (0 to 100), Kochia: Rate 250 g/ha, visual evaluation after 12 to 14 days
Outline: as §1

[10] = test system: lambsquarters (Chenopodium album); settings: for Plant response rating (0 to 100), Lambsquarters: visual evaluation after 12 to 14 days
Outline: as §1

[11] = test system: morningglory (Ipomoea hederacea); settings: for Plant response rating (0 to 100), Morningglory: visual evaluation after 12 to 14 days
Outline: as §1

[12] = test system: pigweed (Amaranthus retroflexus); settings: for Plant response rating (0 to 100), Pigweed: visual evaluation after 12 to 14 days
Outline: as §1

soybean (Glycine max) = settings: for Plant response rating (0 to 100), Soybean: visual evaluation after 12 to 14 days
Outline: as §1

[13] = test system: velvetleaf (Abutilon theophrasti); settings: for Plant response rating (0 to 100), Velvetleaf: visual evaluation after 12 to 14 days
Outline: as §1

[14] = test system: woolly cupgrass (Eriochloa villosa); settings: for Plant response rating (0 to 100), Cupgrass, Woolly: visual evaluation after 12 to 14 days
Outline: as §1

[15] = test system: yellow nutsedge (Cyperus esculentus); settings: for Plant response rating (0 to 100), Nutsedge: visual evaluation after 12 to 14 days
Outline: as §1

Sunflower [16] = settings: scale 0 to 100, 0 no effect, 100 complete control
[17] = Rate 62 g/ha; scale 0 to 100, 0 no effect, 100 complete control
[18] = Rate 125 g/ha, scale 0 to 100, 0 no effect, 100 complete control
[19] = Preemergence, Rate 500 g/ha, scale 0 to 100
[20] = Rate 62 g/ha, scale 0 to 100, 0 no effect, 100 complete control
[21] = preemergence, Rate 125 g/ha, scale 0 to 100, 0 no effect, 100 complete control
[22] = preemergence, Rate 250 g/ha, scale 0 to 100, 0 no effect, 100 complete control

CC(C)(C)c1ccn(C2CCN(c3ccc(Cl)c(Br)c3)C2=O)n1 (stereo not shown) [Compound 56]
Plant response rating, Nightshade (Nightshade; [17]): 0
Plant response rating, Nightshade (Nightshade; [18]): 0
Plant response rating, Nightshade (Nightshade; Rate 500 g/ha, scale 0 to 100): 20
Plant response rating, Sunflower (Sunflower [1]; Rate 500 g/ha, scale 0 to 100): 0
Plant response rating, Surinam grass [2, 19]: 0
Plant response rating, Surinam grass [2, 20]: 0
Plant response rating (0 to 100), Surinam grass ([2]; preemergence, Rate 250 g/ha): 0
Plant response rating, Surinam grass [2, 21]: 0
Plant response rating, Bermudagrass [3, 19]: 100
Plant response rating, Bermudagrass [3, 20]: 40
Plant response rating (0 to 100 where 0 is no effect and 100 is complete control), Bermudagrass ([3]; preemergence, Rate 250 g/ha): 90
Plant response rating, Bermudagrass [3, 21]: 50
Plant response rating, Cocklebur [4, 19]: 100
Plant response rating, Cocklebur [4, 20]: 0
Plant response rating (0 to 100), Cocklebur ([4]; preemergence, Rate 250 g/ha): 0
Plant response rating, Cocklebur [4, 21]: 0
Plant response rating, Ragweed, Common [5, 19]: 20
Plant response rating (0 to 100), Ragweed, Common ([5]; preemergence, Rate 250 g/ha): 0
Plant response rating, Ragweed, Common [5, 21]: 0
Plant response rating, Corn (corn (Zea mays); [19]): 0
Plant response rating, Corn (corn (Zea mays); [20]): 0
Plant response rating (0 to 100), Corn (corn (Zea mays); preemergence, Rate 250 g/ha): 0
Plant response rating, Corn (corn (Zea mays); [21]): 0
Plant response rating, Crabgrass [6, 19]: 100
Plant response rating, Crabgrass [6, 20]: 30
Plant response rating (0 to 100), Crabgrass ([6]; preemergence, Rate 250 g/ha): 90
Plant response rating, Crabgrass [6, 21]: 30
Plant response rating, Foxtail, Giant [7, 19]: 90
Plant response rating, Foxtail, Giant [7, 20]: 0
Plant response rating, Foxtail, Giant [7, 21]: 0
Plant response rating, Goosegrass [8, 19]: 100
Plant response rating, Goosegrass [8, 20]: 60
Plant response rating (0 to 100), Goosegrass ([8]; preemergence, Rate 250 g/ha): 90
Plant response rating, Goosegrass [8, 21]: 80
Plant response rating, Johnsongrass [9, 19]: 0
Plant response rating, Johnsongrass [9, 20]: 0
Plant response rating (0 to 100), Johnsongrass ([9]; preemergence, Rate 250 g/ha): 0
Plant response rating, Johnsongrass [9, 21]: 0
Plant response rating, Kochia (kochia (Kochia scoparia); [19]): 100
Plant response rating, Kochia (kochia (Kochia scoparia); [20]): 50
Plant response rating (0 to 100), Kochia (kochia (Kochia scoparia); preemergence): 100
Plant response rating, Kochia (kochia (Kochia scoparia); [21]): 70
Plant response rating, Lambsquarters [10, 19]: 100
Plant response rating, Lambsquarters [10, 20]: 100
Plant response rating (0 to 100), Lambsquarters ([10]; preemergence, Rate 250 g/ha): 100
Plant response rating, Lambsquarters [10, 21]: 100
Plant response rating, Morningglory [11, 19]: 0
Plant response rating, Morningglory [11, 20]: 0
Plant response rating (0 to 100), Morningglory ([11]; preemergence, Rate 250 g/ha): 0
Plant response rating, Morningglory [11, 21]: 0
Plant response rating, Pigweed [12, 19]: 100
Plant response rating (0 to 100), Pigweed ([12]; preemergence, Rate 250 g/ha): 0
Plant response rating, Pigweed [12, 21]: 90
Plant response rating, Soybean (soybean (Glycine max); [19]): 0
Plant response rating (0 to 100), Soybean (soybean (Glycine max); preemergence, Rate 250 g/ha): 0
Plant response rating, Soybean (soybean (Glycine max); [21]): 0
Plant response rating, Velvetleaf [13, 19]: 20
Plant response rating (0 to 100), Velvetleaf ([13]; preemergence, Rate 250 g/ha): 0
Plant response rating, Velvetleaf [13, 21]: 0
Plant response rating, Cupgrass, Woolly [14, 19]: 70
Plant response rating, Cupgrass, Woolly [14, 20]: 0
Plant response rating (0 to 100), Cupgrass, Woolly ([14]; preemergence, Rate 250 g/ha): 0
Plant response rating, Cupgrass, Woolly [14, 21]: 0
Plant response rating, Nutsedge [15, 19]: 0
Plant response rating, Nutsedge [15, 20]: 0
Plant response rating (0 to 100), Nutsedge ([15]; preemergence, Rate 250 g/ha): 0
Plant response rating, Nutsedge [15, 21]: 0
Plant response rating, Sunflower (Sunflower [16]; Rate 125 g/ha): 0

CC(C)(C)c1ccn(C2CCN(c3ccc(F)c(Br)c3)C2=O)n1 (stereo not shown) [Compound 75]
Plant response rating, Nightshade (Nightshade; [17]): 0
Plant response rating, Nightshade (Nightshade; Rate 125 g/ha; scale 0 to 100, 0 no effect, 100 complete control): 0
Plant response rating, Nightshade (Nightshade; Rate 250 g/ha, scale 0 to 100, 0 no effect, 100 complete control): 0
Plant response rating, Sunflower (Sunflower [1]; [18]): 0
Plant response rating, Surinam grass [2, 20]: 10
Plant response rating, Surinam grass [2, 18]: 40
Plant response rating (0 to 100), Surinam grass ([2]; preemergence, Rate 250 g/ha): 60
Plant response rating (0 to 100), Surinam grass ([2]; preemergence, Rate 500 g/ha): 60
Plant response rating, Bermudagrass [3, 20]: 100
Plant response rating, Bermudagrass [3, 18]: 100
Plant response rating (0 to 100 where 0 is no effect and 100 is complete control), Bermudagrass ([3]; preemergence, Rate 250 g/ha): 100
Plant response rating (0 to 100 where 0 is no effect and 100 is complete control), Bermudagrass ([3]; preemergence, Rate 500 g/ha): 100
Plant response rating, Cocklebur [4, 20]: 0
Plant response rating, Cocklebur [4, 18]: 0
Plant response rating (0 to 100), Cocklebur ([4]; preemergence, Rate 250 g/ha): 0
Plant response rating (0 to 100), Cocklebur ([4]; preemergence, Rate 500 g/ha): 0
Plant response rating, Ragweed, Common [5, 18]: 0
Plant response rating (0 to 100), Ragweed, Common ([5]; preemergence, Rate 500 g/ha): 60
Plant response rating, Ragweed, Common [5, 22]: 0
Plant response rating, Corn (corn (Zea mays); [20]): 0
Plant response rating, Corn (corn (Zea mays); [18]): 0
Plant response rating (0 to 100), Corn (corn (Zea mays); preemergence, Rate 250 g/ha): 0
Plant response rating (0 to 100), Corn (corn (Zea mays); preemergence, Rate 500 g/ha): 0
Plant response rating, Crabgrass [6, 20]: 90
Plant response rating, Crabgrass [6, 18]: 100
Plant response rating (0 to 100), Crabgrass ([6]; preemergence, Rate 250 g/ha): 100
Plant response rating (0 to 100), Crabgrass ([6]; preemergence, Rate 500 g/ha): 100
Plant response rating, Foxtail, Giant [7, 20]: 90
Plant response rating, Foxtail, Giant [7, 18]: 100
Plant response rating (0 to 100), Foxtail, Giant ([7]; preemergence, Rate 250 g/ha): 70
Plant response rating (0 to 100), Foxtail, Giant ([7]; preemergence, Rate 500 g/ha): 100
Plant response rating, Goosegrass [8, 20]: 90
Plant response rating, Goosegrass [8, 18]: 100
Plant response rating (0 to 100), Goosegrass ([8]; preemergence, Rate 250 g/ha): 100
Plant response rating (0 to 100), Goosegrass ([8]; preemergence, Rate 500 g/ha): 100
Plant response rating, Johnsongrass [9, 20]: 0
Plant response rating, Johnsongrass [9, 18]: 0
Plant response rating (0 to 100), Johnsongrass ([9]; preemergence, Rate 250 g/ha): 30
Plant response rating (0 to 100), Johnsongrass ([9]; preemergence, Rate 500 g/ha): 30
Plant response rating, Kochia (kochia (Kochia scoparia); [20]): 100
Plant response rating, Kochia (kochia (Kochia scoparia); [18]): 100
Plant response rating (0 to 100), Kochia (kochia (Kochia scoparia); preemergence): 100
Plant response rating, Lambsquarters [10, 20]: 100
Plant response rating, Lambsquarters [10, 18]: 100
Plant response rating (0 to 100), Lambsquarters ([10]; preemergence, Rate 500 g/ha): 100
Plant response rating, Lambsquarters [10, 22]: 100
Plant response rating, Morningglory [11, 20]: 0
Plant response rating, Morningglory [11, 18]: 0
Plant response rating (0 to 100), Morningglory ([11]; preemergence, Rate 500 g/ha): 0
Plant response rating, Morningglory [11, 22]: 0
Plant response rating, Pigweed [12, 18]: 100
Plant response rating (0 to 100), Pigweed ([12]; preemergence, Rate 500 g/ha): 100
Plant response rating, Pigweed [12, 22]: 100
Plant response rating, Soybean (soybean (Glycine max); [18]): 0
Plant response rating (0 to 100), Soybean (soybean (Glycine max); preemergence, Rate 500 g/ha): 50
Plant response rating, Soybean (soybean (Glycine max); [22]): 0
Plant response rating, Velvetleaf [13, 18]: 0
Plant response rating (0 to 100), Velvetleaf ([13]; preemergence, Rate 500 g/ha): 0
Plant response rating, Velvetleaf [13, 22]: 0
Plant response rating, Cupgrass, Woolly [14, 20]: 60
Plant response rating, Cupgrass, Woolly [14, 18]: 80
Plant response rating (0 to 100), Cupgrass, Woolly ([14]; preemergence, Rate 250 g/ha): 100
Plant response rating (0 to 100), Cupgrass, Woolly ([14]; preemergence, Rate 500 g/ha): 100
Plant response rating, Nutsedge [15, 20]: 0
Plant response rating, Nutsedge [15, 18]: 0
Plant response rating (0 to 100), Nutsedge ([15]; preemergence, Rate 500 g/ha): 50
Plant response rating, Nutsedge [15, 22]: 50
Plant response rating, Sunflower (Sunflower [16]; Rate 250 g/ha): 0

Reference: patent US7138361B2, “Herbicidal heterocycles” (E. I. du Pont de Nemours and Company, priority 2000, dated 2006)
